Data taken from US8404790B2, “Aqueous emulsion polymerization process for producing fluoropolymers” (3M Innovative Properties Company, priority 2005, dated 2013).

Experiment: Determination of bio-accumulation: urinary clearance pharmacokinetic study in rats
Settings: oral gavage
Experimental: The fluorinated surfactants were evaluated for urinary clearance using a pharmacokinetic study in rats. The goal was to measure the total amount of parent compound eliminated via urinary output and estimate the rate of elimination.
The study utilized male Sprague Dawley rats, 6 to 8 weeks of age, and approximately 200 to 250 g body weight at study onset. The test compounds of table 2 were administered at a dose of 73 micromoles per kg body weight in rats (N=3 animals per tested compound). All test compounds were prepared in sterile deionized water and given to rats via oral gavage. After test compounds administration, the rats were housed individually in metabolism cages for urine collection: 0 to 6 hours, 6 to 24 hours, 24 to 48 hours and 72 to 96 hours. Animals were observed throughout the study for clinical signs of toxicity. Gross necropsy was performed at the termination of each study (96 hours post-dose) with sera and liver samples being retained from each animal
The concentration of the parent compound or metabolites thereof were quantitatively measured via fluorine NMR on each urine sample for each animal at each time point based on internally added standards.

Structure (SMILES): O=C(O)C(F)(F)OC(F)(F)OC(F)(F)OC(F)(F)OC(F)(F)F [Compound 1, perfluoro-3,5,7,9-tetraoxadecanoic acid (CF3—(OCF2)4—COOH)]
- T½ (renal elimination half-life) (73 micromoles per kg body weight, urine, fluorine NMR, exponential least squares curve fitting): 15 h
- % Recovery (96 h) (73 micromoles per kg, recovery of administered amount in urine after 96 h): 50%
